One test has as its system Dectin-1. Description: Expression of Dectin-1 in spleen-derived dendritic cells with CpG ODN stimulation. The settings on record: spleen-derived dendritic cells stimulated with CpG ODN. The format is cell-based. On the procedure:
Next, the expression of Dectin-1, which is a receptor that recognizes β-1,3-glucan, in dendritic cells was measured. The summary and the result of the experiment are illustrated in FIG. 12. As illustrated in the left panel in the figure, it was confirmed that, in spleen-derived dendritic cells, the expression of Dectin-1 is not high, but the expression of Dectin-1 increases more than 3 times by stimulating the cells with CpG ODN. Dectin-1 is known to induce the Th17 response. These indicate the mechanism of the present invention in which the addition of both of CpG ODN and β-1,3-glucan to the adjuvant makes dendritic cells easy to receive the stimulation with β-1,3-glucan and induces the Th17 response.

For test [1], the system named is pulmonary mucosa lamina propria cells. Description: Cytokine production of pulmonary mucosa lamina propria cells after intranasal booster. The format is in vivo, mice. The note with it: 7 days after intranasal OVA, cultured 4 days with OVA 100 μg/ml. On the procedure:
IFA, IFA+OVA+CpG ODN, IFA+OVA+curdlan, and IFA+OVA+CpG ODN+curdlan were administered to mice by intramuscular injection, respectively. On Day 35, 1 μg/mouse of OVA was administered by intranasal administration to perform booster immunization, and, 7 days later antigen-specific total IgG in the serum and IgA in the bronchoalveolar lavage fluid were measured by ELISA.
In the experiment of 9, 7 days after the intranasal administration of OVA, pulmonary mucosa lamina propria cells were extracted from the mice and cultured in the presence of the antigen (OVA 100 μg/ml) for 4 days and IFN-γ, IL-4, and IL-17 production was measured by ELISA.

The subject of another test is CD57BL/6 mice. The experiment in a line: IgA induction by spleen cDCs stimulated with OVA, CpG ODN and GM-CSF, intraperitoneally administered to mice. The format is in vivo. The settings on record: spleen cDCs stimulated 24 hours with OVA 100 μg/ml and adjuvant, given i.p. Day 0 and Day 14; oral OVA Day 21 to 25; ELISA Day 32. On the procedure: Spleen cDCs were stimulated for 24 hours using ovalbumin (OVA; 100 μg/ml) as an antigen and CpG ODN 1668 (1 μg/ml) only or the combination of CpG ODN and GM-CSF (10 ng/ml) as an adjuvant.
Here, the fractioning of murine small intestine mucosa lamina propria cells with the dendritic cell marker CD11c and the macrophage marker CD11b produces the 4 groups: R1 (dendritic cells) (CD11c high CD11b low), R2 (dendritic cells) (CD11c high CD11b high), R3 (macrophages) (CD11c int CD11b int), R4 (acidophiles) (CD11c int CD11b high). The R2 dendritic cells specifically express Raldh2 and induce the Th17 response and the IgA production (Non-Patent Literature 1). Therefore, the R2 dendritic cells were stimulated with OVA (100 μg/ml) and CpG ODN 1668 (1 μg/ml) as positive control. Spleen cDCs were stimulated with OVA (100 μg/ml) and CpG ODN 1668 (1 μg/ml) with or without GM-CSF (10 ng/ml).
On Day 0 and Day 14 after the stimulation, dendritic cells (each 5×10^4 cells) (or PBS) which took up the antigen were intraperitoneally administered into CD57BL/6 mice. On Day 21 to Day 25, 1 mg/mouse of OVA was orally administered daily and, on Day 32, total of antigen-specific IpG in serum and antigen-specific IgA in feces were measured by ELISA.

The next test relates to Raldh2. Description: Induction of Raldh2 mRNA expression in spleen cDCs (RT-PCR). The test is classed as cell-based. The settings on record: spleen cDCs stimulated 24 hours. On the procedure: Next, zymosan (component of yeast cell wall of Saccharomyces cerevisiae; 25 ng/ml) and curdlan ((β-1,3-glucan derived from Agrobacterium spp., Alcaligenes spp.; 25 ng/ml) were used as glucan-based compound. Spleen cDCs were stimulated with these substances for 24 hours and, after collecting RNA, the expression of Raldh2 mRNA was measured by RT-PCR.

Results on 3 molecules are retold here after patent publication US10857228B2, “Adjuvant for vaccines, vaccine, and immunity induction method” (The University of Tokyo, priority 2015, dated 2020).

For the molecule CpG ODN 1668, the “increase of expression of Dectin-1” value in the test on Dectin-1 is “more than 3 times”. Further, in test [1], the IFN-γ production entry is “induced”. Further, the “antigen-specific IgA in feces” value in the test with CD57BL/6 mice is listed as “induced little production of IgA”.
For curdlan, the IFN-γ production result in test [1] was “induced”. In addition, the “expression of Raldh2 mRNA” value in the test with Raldh2 was “induced the expression of Raldh2”.

B1: granulocyte monocyte colony stimulating factor (protein, UniProt P01587 18-141, looked up)
Granulocyte-macrophage …: APTRSPITVTRPWKHVEAIKEALNLLDDMPVTLNEEVEVVSNEFSFKKLTCVQTRLKIFEQGLRGNFTKLKGALNMTASYYQTYCPPTPETDCETQVTTYADFIDSLKTFLTDIPFECKKPGQK
notes: inducer of expression of Raldh2; added with CpG ODN to stimulate spleen cDCs
B1: the “antigen-specific IgA in feces” value in the test on CD57BL/6 mice is on record as “induced IgA production more than the R2 dendritic cells”. Besides, the “expression of Raldh2 mRNA” value in the test on Raldh2 is reported as “induced the expression of Raldh2”.
